Drawing on PubChem BioAssay AID1259407 (Chemical Carcinogenesis Research Information System (CCRIS), 2018), this text covers mutagenic call for six molecules.

Active and inactive are the calls of the source. No rule for the calls is given here.

The test system of this data set is CCRIS mutagenicity, Ames/micronucleus/aberration tests. Kind of data set: CCRIS mutagenicity studies.
Where [1] appears, read: Test System: AMES SALMONELLA TYPHIMURIUM, Strain/Indicator: TA98, Metabolic Activation: NONE, Method: PREINCUBATION
The mark [2] stands for this setting: Test System: AMES SALMONELLA TYPHIMURIUM, Strain/Indicator: TA100, Metabolic Activation: NONE, Method: PREINCUBATION
Setting [3] is: Test System: AMES SALMONELLA TYPHIMURIUM, Strain/Indicator: TA100, Metabolic Activation: NONE, Method: STANDARD PLATE.

Take `NC(=O)N(c1ccccc1)c1ccc(C(=O)O)cc1`: the mutagenic call was “active; positive” (Test System: AMES SALMONELLA TYPHIMURIUM, Strain/Indicator: TA98, Metabolic Activation: MAIZE SEEDLING, S-14, Method: PREINCUBATION); “inactive; negative” (Test System: AMES SALMONELLA TYPHIMURIUM, Strain/Indicator: TA98, Metabolic Activation: MOUSE, LIVER, S-9, Method: PREINCUBATION); “inactive; negative” under setting [1]; “inactive; negative” (Test System: AMES SALMONELLA TYPHIMURIUM, Strain/Indicator: TA100, Metabolic Activation: MAIZE SEEDLING, S-14, Method: PREINCUBATION); “inactive; negative” (Test System: AMES SALMONELLA TYPHIMURIUM, Strain/Indicator: TA100, Metabolic Activation: MOUSE, LIVER, S-9, Method: PREINCUBATION); “inactive; negative” under setting [2]. The mutagenic call (Test System: AMES SALMONELLA TYPHIMURIUM, Strain/Indicator: TA1535, Metabolic Activation: NONE, Method: PREINCUBATION) is “inactive; negative”; the mutagenic call (Test System: AMES SALMONELLA TYPHIMURIUM, Strain/Indicator: TA1537, Metabolic Activation: NONE, Method: PREINCUBATION) is “inactive; negative”; the mutagenic call (Test System: AMES SALMONELLA TYPHIMURIUM, Strain/Indicator: TA1538, Metabolic Activation: NONE, Method: PREINCUBATION) was “inactive; negative”.

As for `CC1=CC(=O)C(C(C)C)=CC1=O`, the mutagenic call under setting [1] was “inactive; negative”; the mutagenic call (Test System: AMES SALMONELLA TYPHIMURIUM, Strain/Indicator: TA98, Metabolic Activation: RAT, LIVER, S-9, PHENOBARBITAL AND 5,6-BENZOFLAVONE, Method: PREINCUBATION) was “inactive; negative”; the mutagenic call under setting [2] was “inactive; negative”; the mutagenic call (Test System: AMES SALMONELLA TYPHIMURIUM, Strain/Indicator: TA100, Metabolic Activation: RAT, LIVER, S-9, PHENOBARBITAL AND 5,6-BENZOFLAVONE, Method: PREINCUBATION) is “inactive; negative”; the mutagenic call (Test System: AMES SALMONELLA TYPHIMURIUM, Strain/Indicator: TA102, Metabolic Activation: NONE, Method: PREINCUBATION) is “inactive; negative”; the mutagenic call (Test System: AMES SALMONELLA TYPHIMURIUM, Strain/Indicator: TA102, Metabolic Activation: RAT, LIVER, S-9, PHENOBARBITAL AND 5,6-BENZOFLAVONE, Method: PREINCUBATION) was “inactive; negative”. In addition, the mutagenic call (Test System: AMES SALMONELLA TYPHIMURIUM, Strain/Indicator: TA104, Metabolic Activation: RAT, LIVER, S-9, PHENOBARBITAL AND 5,6-BENZOFLAVONE, Method: PREINCUBATION) was “inactive; negative”; the mutagenic call (Test System: AMES SALMONELLA TYPHIMURIUM, Strain/Indicator: TA2637, Metabolic Activation: NONE, Method: PREINCUBATION) was “active; positive”; the mutagenic call (Test System: AMES SALMONELLA TYPHIMURIUM, Strain/Indicator: TA2637, Metabolic Activation: RAT, LIVER, S-9, PHENOBARBITAL AND 5,6-BENZOFLAVONE, Method: PREINCUBATION) was “inactive; negative”.

As for `NC1c2ccccc2-c2ccccc21`, the mutagenic call is, setting by setting: (Test System: AMES SALMONELLA TYPHIMURIUM, Strain/Indicator: TA98, Metabolic Activation: RAT, LIVER, S-9, AROCLOR 1254 (2 OR 4%), Method: STANDARD PLATE) “inactive; negative”; (Test System: AMES SALMONELLA TYPHIMURIUM, Strain/Indicator: TA100, Metabolic Activation: RAT, LIVER, S-9, AROCLOR 1254 (2%), Method: STANDARD PLATE) “inactive; negative”; (Test System: AMES SALMONELLA TYPHIMURIUM, Strain/Indicator: TA1535, Metabolic Activation: RAT, LIVER, S-9, AROCLOR 1254 (2%), Method: STANDARD PLATE) “inactive; negative”; (Test System: AMES SALMONELLA TYPHIMURIUM, Strain/Indicator: TA1537, Metabolic Activation: RAT, LIVER, S-9, AROCLOR 1254 (2%), Method: STANDARD PLATE) “inactive; negative”.

With `CCOC(=O)C(C)(C)Oc1ccc(Cl)cc1`, the mutagenic call is “active; positive” (End Point: In vitro micronucleus, Test System: Mouse lymphoma L5178Y cells, Metabolic Activation: None); “inactive; negative” (Test System: AMES SALMONELLA TYPHIMURIUM, Strain/Indicator: TA100(FR1), Metabolic Activation: NONE, Method: STANDARD PLATE); “inactive; negative” (Test System: AMES SALMONELLA TYPHIMURIUM, Strain/Indicator: TA100(FR1), Metabolic Activation: RAT, LIVER, S-9, PHENOBARBITAL AND 3-METHYLCHOLANTHRENE, Method: STANDARD PLATE); “inactive; negative” under setting [3]; “inactive; negative” (Test System: AMES SALMONELLA TYPHIMURIUM, Strain/Indicator: TA100, Metabolic Activation: RAT, LIVER, S-9, PHENOBARBITAL AND 3-METHYLCHOLANTHRENE, Method: STANDARD PLATE); “inactive; negative” (Test System: AMES SALMONELLA TYPHIMURIUM, Strain/Indicator: TA102, Metabolic Activation: RAT LIVER S-9, PHENOBARBITAL AND 5,6-BENZOFLAVONE, Method: STANDARD PLATE). Moreover, the mutagenic call (Test System: AMES SALMONELLA TYPHIMURIUM, Strain/Indicator: TA2638, Metabolic Activation: RAT LIVER S-9, PHENOBARBITAL AND 5,6-BENZOFLAVONE, Method: STANDARD PLATE) was “inactive; negative”; the mutagenic call (Test System: CHINESE HAMSTER V-79, Strain/Indicator: V-79/6-THIOGUANINE, Metabolic Activation: NONE) is “inactive; negative”; the mutagenic call (Test System: CHINESE HAMSTER V-79, Strain/Indicator: V-79/6-THIOGUANINE, Metabolic Activation: RAT, LIVER, HEPATOCYTES) was “inactive; negative”; the mutagenic call (Test System: CHINESE HAMSTER V-79, Strain/Indicator: V-79/OUABAIN, Metabolic Activation: NONE) was “inactive; negative”; the mutagenic call (Test System: CHINESE HAMSTER V-79, Strain/Indicator: V-79/OUABAIN, Metabolic Activation: RAT, LIVER, HEPATOCYTES) is “inactive; negative”; the mutagenic call (Test System: E. COLI, Strain/Indicator: WP2 (PKM101), Metabolic Activation: RAT LIVER S-9, PHENOBARBITAL AND 5,6-BENZOFLAVONE, Method: STANDARD PLATE) is “inactive; negative”. The mutagenic call is, setting by setting: (Test System: E. COLI, Strain/Indicator: WP2 UVRA (PKM101), Metabolic Activation: RAT LIVER S-9, PHENOBARBITAL AND 5,6-BENZOFLAVONE, Method: STANDARD PLATE) “inactive; negative”; (Test System: Mouse lymphoma, Strain/Indicator: L5178Y (tk+/tk-)/Trifluorothymidine, Metabolic Activation: None, Method: Microtiter) “inactive; negative”.

Regarding `CS(=N)(=O)CCC(N)C(=O)O` (stereo not drawn), the mutagenic call is, setting by setting: (Test System: AMES SALMONELLA TYPHIMURIUM, Strain/Indicator: TA102, Metabolic Activation: NONE, Method: STANDARD PLATE) “inactive; negative”; (Test System: AMES SALMONELLA TYPHIMURIUM, Strain/Indicator: TA102, Metabolic Activation: RAT, LIVER, S-9, AROCLOR 1254, Method: STANDARD PLATE) “inactive; negative”.

On to `Nc1c(S(=O)(=O)O)cc(NC2CCCCC2)c2c1C(=O)c1ccccc1C2=O`, for which the mutagenic call runs as follows: (Test System: AMES SALMONELLA TYPHIMURIUM, Strain/Indicator: TA98, Metabolic Activation: NONE, Method: STANDARD PLATE) “inactive; negative”; (Test System: AMES SALMONELLA TYPHIMURIUM, Strain/Indicator: TA98, Metabolic Activation: RAT, LIVER, S-9, AROCLOR 1254, Method: STANDARD PLATE) “inactive; negative”; under setting [3], “inactive; negative”; (Test System: AMES SALMONELLA TYPHIMURIUM, Strain/Indicator: TA100, Metabolic Activation: RAT, LIVER, S-9, AROCLOR 1254, Method: STANDARD PLATE) “inactive; negative”; (Test System: AMES SALMONELLA TYPHIMURIUM, Strain/Indicator: TA1535, Metabolic Activation: NONE, Method: STANDARD PLATE) “inactive; negative”; (Test System: AMES SALMONELLA TYPHIMURIUM, Strain/Indicator: TA1535, Metabolic Activation: RAT, LIVER, S-9, AROCLOR 1254, Method: STANDARD PLATE) “inactive; negative”. In addition, the mutagenic call is, setting by setting: (Test System: AMES SALMONELLA TYPHIMURIUM, Strain/Indicator: TA1537, Metabolic Activation: NONE, Method: STANDARD PLATE) “inactive; negative”; (Test System: AMES SALMONELLA TYPHIMURIUM, Strain/Indicator: TA1537, Metabolic Activation: RAT, LIVER, S-9, AROCLOR 1254, Method: STANDARD PLATE) “inactive; negative”; (Test System: AMES SALMONELLA TYPHIMURIUM, Strain/Indicator: TA1538, Metabolic Activation: NONE, Method: STANDARD PLATE) “inactive; negative”; (Test System: AMES SALMONELLA TYPHIMURIUM, Strain/Indicator: TA1538, Metabolic Activation: RAT, LIVER, S-9, AROCLOR 1254, Method: STANDARD PLATE) “inactive; negative”.
